Measured values published in US20080131511A1, “Pharmaceutical Composition for Treatment of Tear and Salivary Fluid Drying” (Astellas Pharma, Inc., priority 2004, published 2008).
Like-named read-outs stand apart in the source and are kept apart here.

Assays:
[1] = Calculation of plasma concentration under stationary state (Css) and PT ratio from phase I data; design: species or system human; details: for concentration in plasma under stationary state (Css): calculated from AUC and T1/2 at 20 mg; for PT ratio (Cmax/Cmin): calculated
Text: As described in the above, in order to increase secretion of salivary and tear fluid and to obtain effect of salivary gland and lacrimal gland cell growth, more sufficiently than usual, it is desirable to control drug release per unit hour of the compound A from a sustained release pharmaceutical preparation, and essentially, it is ideal to keep its effective concentration in human plasma for a predetermined period of time. The effective concentration of compound A in plasma under stationary state can be calculated using the AUC and disappearing half life obtained in the human clinical test, the aforementioned drug release per unit hour, distribution volume, disappearing rate constant and the like pharmacokinetic parameters.
An example of the method for calculating its concentration in plasma under stationary state (Css) is shown in the following.
They were 86.9, 172, 1380 and 2758 ng/ml. Though there is a possibility that it varies depending on the influences of specific difference, individual difference and the like various factors, when an example is cited, effective concentration of the compound A in plasma is 35 ng/ml in a lower case, based on the aforementioned calculation result and from the aforementioned valued calculated from Tables 7 and 8. This is preferably 50 ng/ml, more preferably 87 ng/ml, and further more preferably 170 ng/ml.
In addition, it is desirable to control a PT ratio (Cmax/Cmin) which is the ratio of maximum concentration of the compound A in plasma (Cmax) to its minimum concentration in plasma (Cmin). It is possible to calculate the PT ratio from Tmax and T1/2, and the calculation is carried out in the following manner.
This value means that the hour of T1/2 passed 5.5 times after Tmax, and (½)^5.5=1/45. Thus, the PT ratio becomes 45.
Also, when supposed as twice a day administration, (12−2)/4=2.5. In the same manner as in the above, (½)^2.5=1/5.7. Thus, the PT ratio is 5.7. In addition, when the same calculation is carried out based on the minimum value 3.4 h of T1/2 (showing the effect without perspiration),

[2] = Phase I study, single oral administration: pharmacokinetics in plasma; format: in vivo, human; details: for Tmax / AUC / half-life / Cmax: male
Method: The compound A was orally administered once to healthy male adult volunteers, and saliva secretion action and pharmacokinetics were evaluated.
Drug administration to the volunteers was carried out by a blind method.
In order to observe the volunteers carefully, saliva quantity, sweating and pharmacokinetics (concentrations of unchanged compound A in plasma and urine) were periodically measured.

[3] = human plasma, single oral 10 mg
[4] = human plasma, single oral 20 mg
[5] = human plasma, single oral 40 mg
[6] = human plasma, single oral 60 mg

## C=C1CC2(CCN(C)CC2)O[C@H]1C [compound A, (−)-(S)-2,8-dimethyl-3-methylene-1-oxa-8-azaspiro[4.5]decane]
[1]; release rate R=4.2 mg/h
  concentration in plasma under stationary state (Css): 86.9 ng/mL
[1]; release rate R=8.3 mg/h
  concentration in plasma under stationary state (Css): 172 ng/mL
[1]; release rate R=66.7 mg/h
  concentration in plasma under stationary state (Css): 1380 ng/mL
[1]; release rate R=133.3 mg/h
  concentration in plasma under stationary state (Css): 2758 ng/mL
[1]; once a day administration, T1/2 3.4 h
  PT ratio (Cmax/Cmin): 90.5
[1]; once a day administration, Tmax 2, T1/2 4
  PT ratio (Cmax/Cmin): 45
[1]; twice a day administration, T1/2 3.4 h
  PT ratio (Cmax/Cmin): 7.5
[1]; twice a day administration, Tmax 2, T1/2 4
  PT ratio (Cmax/Cmin): 5.7
[2]; human plasma, single oral 5 mg
  AUC0→∞: 117.6 ± 41.5 ng/h/mL
  Cmax: 19.8 ± 5.2 ng/mL
  Tmax: 1.5 ± 0.55 h
[2]; [3]
  AUC0→∞: 180.5 ± 77.6 ng/h/mL
  Tmax: 1.17 ± 0.41 h
[2]; [4]
  AUC0→∞: 410.1 ± 106.8 ng/h/mL
  Cmax: 68.1 ± 13 ng/mL
  Tmax: 2 ± 0.63 h
[2]; [5]
  AUC0→∞: 1,010.1 ± 323.2 ng/hr/ml
  Tmax: 1.67 ± 0.82 h
[2]; [6]
  AUC0→∞: 1,482.3 ± 371.1 ng/hr/ml
  Cmax: 266 ± 25.2 ng/mL
  Tmax: 1.6 ± 0.55 h
[2]; plasma, oral, human test result which used general tablets containing the compound A
  Tmax: ~2 h
[2]; plasma, oral, human, 20 mg administration
  AUC: 410 ng·h/mL
[2]; plasma, oral, human, 20 mg administration, read-out: T1/2 (converted)
  half-life: 3.38 h
[2]; plasma, human, 40 mg oral administration
  AUC: 1010 ng·h/mL
[2]; plasma, human, oral 10 mg
  Cmax: 35.3 ± 10.5 ng/mL
[2]; plasma, human, oral 40 mg
  Cmax: 151 ± 24.1 ng/mL
[2]; human plasma, single oral 5 mg, read-out: T½ (converted)
  half-life: 3.89 ± 0.81 h
[2]; human plasma, single oral 10 mg, read-out: T½ (converted)
  half-life: 3.42 ± 0.67 h
[2]; human plasma, single oral 20 mg, read-out: T½ (converted)
  half-life: 3.88 ± 0.67 h
[2]; human plasma, single oral 40 mg, read-out: T½ (converted)
  half-life: 3.78 ± 0.59 h
[2]; human plasma, single oral 60 mg, read-out: T½ (converted)
  half-life: 3.2 ± 0.79 h
